Laboratory results reported in patent publication US20010056084A1, “MGluR5 antagonists for the treatment of pain and anxiety” (priority 1998, published 2001).

Tests used:
naive rat hind paw = naive rat hind paw test of mechanical hyperalgesia (Randall and Selitto), glutamate receptor agonists; format: in vivo
[1] = tested on: DHPG-induced hyperalgesia in the rat hind paw; test: DHPG-induced hyperalgesia in the rat hind paw (Randall and Selitto), co-administration; format: in vivo; conditions: co-administration with DHPG to the rat hind paw
rat = conditions: intrathecally administered; cited from earlier work

Structure (SMILES)	rank order of potency as hyperalgesic agents (naive rat hind paw)	inhibition of DHPG-induced hyperalgesia [1]	spontaneous nociceptive responses (rat)
NC1(C(=O)O)CCC2C(C(=O)O)C21 (racemic) [LY 314582, (±)-2-aminobicyclo[3.1.0]hexane-2,6-dicarboxylic acid]	(LY 314582)>L-4-phosphono-2-amino-butiric acid (L-AP4)	–	–
N[C@H](C(=O)O)c1ccc(C(=O)O)cc1 [(S)-4C-PG, (S)-4-carboxyphenylglycine]	–	limited effect	–
Cc1o[nH]c(=O)c1CC(N)C(=O)O (centres unmarked) [AMPA]	AMPA>(±)-2-aminobicyclo[3.1.0]hexane-2,6-dicarboxylic acid (LY 314582)	–	–
NC(C(=O)O)c1cc(O)cc(O)c1 (centres unmarked) [DHPG, 3,5-dihydroxyphenyiglycine]	DHPG>NMDA	–	induced an increase in spontaneous nocicepfive responses
N[C@@H](CCP(=O)(O)O)C(=O)O [L-AP4, L-4-phosphono-2-amino-butiric acid]	>L-4-phosphono-2-amino-butiric acid (L-AP4)	–	–
CN[C@H](CC(=O)O)C(=O)O [NMDA]	NMDA>AMPA	–	–
N[C@@H](CCC(=O)O)C(=O)O [glutamate]	glutamate ˜2-chloro-3-hydroxyphenylglycine (CHPG)	–	–
